Values after ≈ are worked out from the molar mass of the structure shown.
Key:
IIIB strain of HIV = assay: microbe, parasite or virus in culture; format: cell-based
Description: The following test procedure was employed.
In a classical virology assay aimed at testing the antiviral activity of a drug, the virus is added in the presence of a drug to target cells for the determined period of inoculation time, e.g., 1 hour, and then nonadsorbed virus is washed away and inoculated cells are exposed again to a fresh drug. After several days, a period corresponding to the replication cycle of the virus, the dose-effect of the drug is tested by measuring the quantity of newly-synthesized virus in the culture supernates of inoculated cells. But this strategy is not truly representative of the in vivo situation. It is clear that in a real-life situation the virus is not "flushed" from a human body prior to drug administration. […] In the present assay, virus, drug and cells were left without washing in the culture until tested for virus production 3 days later. This period of time presents one full cycle of HIV replication, Dimitrov et al., J. Virol. 67:2182-90, 1993. It is believed that this type of approach represents more closely and simulates the situation which exists in vivo.
p24 ELISA. Reduction of productive infection was evaluated by a commercial ELISA kit for viral core gag p24 product according to the manufacturer's instructions (Coulter, Hialeah, Fla.) as follows. Detergent-lysed samples of viral culture medium that were incubated in wells (96-well format), precoated with anti-p24 antibody, were screened for gag antigen by adding biotin-labeled anti-p24 antibody followed by streptavidin-peroxidase conjugate. The amount of captured p24 was measured by comparing the optical density (450 nm) of peroxidase substrate with supplied standards containing known amounts of p24. The lower limit of reliable sensitivity of this kit is 7.8 pg/ml.

MT-4 lymphocytes = conditions: MT-4 cells, 3 days continuous exposure; approximate log10 concentration
HIV = conditions: cited from earlier work; for Dose protecting against / abrogating HIV infection in vitro: literature figures, equivalent of the % or μM value
[1] = 30 minutes in an autoclave; cited from earlier work
[2] = MT-4 cells, HIV IIIB, 3 days, p24 ELISA, approximate log10 concentration

Molecule	IC50 (IIIB strain of HIV; Human immunodeficiency virus 1, MT4, 72 h, MT-4 cells, HIV IIIB, 3 days, p24 ELISA, approximate log10 concentration, read-out: IC50 (50% inhibition of HIV infection))	Dose giving complete protection against HIV infection (IIIB strain of HIV; MT-4 cells, HIV IIIB)	IC100 (100% inhibition of HIV infection) (IIIB strain of HIV; [2])	CC100 (cytotoxicity) (MT-4 lymphocytes)	Dose protecting against / abrogating HIV infection in vitro (HIV)	Concentration reported to abrogate HIV infection (HIV; literature in vitro studies)	Cytopathic effect (membrane ballooning, syncytia) (IIIB strain of HIV; wells where viral replication was completely inhibited)	Retention of biological activity after autoclaving [1]	IC50 (50% inhibition of HIV infection) (IIIB strain of HIV; [2])	Dose at which the protective effect was generally observed in vitro (HIV; literature review of in vitro investigations)
Cc1cc2c(C(C)C)c(O)c(O)c(C=O)c2c(O)c1-c1c(C)cc2c(C(C)C)c(O)c(O)c(C=O)c2c1O [Gossypol, gossypol]	~1 µg/mL (≈ 1.93 µM)	10 µg/mL	~10 µg	~10 µg	50 µg/mL	100 µM				
gramicidin			~0.01 µg				No signs of cytophatic effect were observed			
gramicidin S								retains its biological activity		
nonoxynol-9		10 µg/mL	~10 µg	~10 µg	50 µg/mL				~10 ng	0.05%

Source: patent publication US5552382A (priority 1994, dated 1996)
